Measurements: PubChem BioAssay (NCI)
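Protocol summary: plate cells (96-well), add compound at 5 concentrations, incubate 48 h, interpolate endpoints linearly. TGI: concentration producing complete growth inhibition.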 Peptide text beside a SMILES is read from it. * marks the point of attachment. X26 = Clc1c(Cl)c(Cl)c(O*)c(Cl)c1Cl; Boc = CC(C)(C)OC(=O)*; OBn = c1ccc(CO*)cc1; Bn = c1ccc(C*)cc1

Legend:
Test in all cases: inhibition of tumour cell growth, NCI panel, 48 h
A498 renal = system: A498 renal
HL-60(TB) leukemia = system: HL-60(TB) leukemia
HOP-62 NSCLC = system: HOP-62 NSCLC
HT29 colon = system: HT29 colon
NCI/ADR-RES ovarian = system: NCI/ADR-RES ovarian
PC-3 prostate = system: PC-3 prostate
RXF 393 renal = system: RXF 393 renal
U251 CNS = system: U251 CNS
CAKI-1 renal = system: CAKI-1 renal
HCC-2998 colon = system: HCC-2998 colon

SMILES	TGI (A498 renal)	TGI (HL-60(TB) leukemia)	TGI (HOP-62 NSCLC)	TGI (HT29 colon)	TGI (NCI/ADR-RES ovarian)	TGI (PC-3 prostate)	TGI (RXF 393 renal)	TGI (U251 CNS)	TGI (CAKI-1 renal)	TGI (HCC-2998 colon)
O=C1N/N=C\c2ccc(cc2)OCc2cccc(n2)COc2ccc(cc2)/C=N\NC1=O	> 25 µM	> 25 µM	> 25 µM	> 25 µM	> 25 µM	> 25 µM	> 25 µM	> 25 µM		
S=c1[nH]nc(Cn2c3ccc(Br)cc3c3nc4ccccc4nc32)n1C1CCCCC1	58.1 µM		> 63.5 µM	> 100 µM	> 92 µM	> 66.9 µM	70.1 µM	> 67.6 µM	> 100 µM	61 µM
N#Cc1nc(C2CCC(=O)O2)oc1N (stereo not given)	> 100 µM	> 100 µM	> 100 µM	> 100 µM	> 100 µM	> 100 µM	> 100 µM	> 100 µM	> 100 µM	
CC(C)CC(NC(=O)C(CCC(=O)OCc1ccccc1)NC(=O)OC(C)(C)C)C(=O)NC(COCc1ccccc1)C(=O)NC(Cc1ccccc1)C(=O)Oc1c(Cl)c(Cl)c(Cl)c(Cl)c1Cl (stereo not given) (Boc-E(OBn)LS(Bn)F-X26; configuration not given here)				> 100 µM	86.8 µM	> 100 µM	63.8 µM	43.7 µM	48.4 µM	
Cc1ccc(C(=O)Cc2nc3c([nH]c2=O)c(C)nn3-c2ccccc2)c(C)c1		> 10 µM	> 10 µM	> 10 µM	> 10 µM	> 10 µM		> 10 µM	> 10 µM	> 10 µM
CC(C)=CCC12Cc3ccc(O)cc3C(C(C)CN1)C2C (stereo not given)	> 100 µM	> 100 µM	> 100 µM	> 100 µM	> 100 µM		> 100 µM	> 100 µM		48.2 µM
CC(C)(C)c1cc(/C=C2/NC(=O)NC2=O)cc(C(C)(C)C)c1O	27 µM	25.9 µM	33.1 µM	31.7 µM	34.1 µM	20.3 µM	19.7 µM	25.8 µM	31.5 µM	
C[N+]1(CCN=C=NC2CCCCC2)CCOCC1	> 100 µM	> 100 µM	> 100 µM	> 100 µM	> 100 µM	> 100 µM	> 100 µM	> 100 µM	> 100 µM	
CCCCCCCCCCCCNC(=O)CCC(NC(=O)c1ccc(N(C)Cc2cnc3nc(N)nc(N)c3n2)cc1)C(=O)NCCCCCCCCCCCC (stereo not given)	> 100 µM	87.1 µM	95.6 µM	> 100 µM	> 100 µM	> 100 µM	43.3 µM	24.7 µM		> 100 µM
COc1ccc(OC)c(NC(=O)C(=O)C(C(=O)c2ccccc2F)C2OC(=O)c3ccccc32)c1 (stereo not given)	> 100 µM	> 100 µM	> 100 µM	> 100 µM			70.7 µM	49.5 µM	> 100 µM	> 100 µM
O=P(OCc1ccccc1)(OCc1ccccc1)C(O)/C=C/c1ccccc1 (stereo not given)	35.2 µM	44.3 µM	55.5 µM	45.4 µM	62.9 µM	> 100 µM	> 100 µM	27.4 µM	98.7 µM	
O=c1[nH]c(=O)n(C2CC(O)C(CO)O2)cc1OC/C=C/Cc1ccccc1 (stereo not given)		> 100 µM	> 100 µM	> 100 µM	> 100 µM	> 100 µM	> 100 µM	> 100 µM	> 100 µM	
Cc1cnc2[nH]c(-c3cccc(F)c3)cc(=O)c2c1		0.0628 µM	> 100 µM	0.806 µM	0.0395 µM		> 100 µM	> 100 µM	> 100 µM	
c1c(N2CCOCC2)ssc1=[N+]1CCOCC1	> 100 µM	> 100 µM	> 100 µM	> 100 µM			> 100 µM	> 100 µM	> 100 µM	> 100 µM
COc1cccc(N2C(=O)CS(=O)(=O)C2c2cccc(Oc3ccccc3)c2)c1 (stereo not given)	36.7 µM	> 100 µM	> 100 µM	89.3 µM	77.3 µM	85.8 µM	71.1 µM	49.7 µM	> 100 µM	
CC(=O)OC1CC2(O)C(CCC3(C)C(c4ccc(=O)oc4)CCC32O)C2(C)C1=CC(O)C1OC12 (stereo not given)	0.582 µM	1.28 µM	0.172 µM	2.89 µM	0.284 µM		0.0324 µM	0.281 µM	0.0968 µM	0.436 µM
CC(=O)C1(O)CCC2(O)C3(O)CC=C4CC(O)CCC4(C)C3CC(OC(=O)c3ccc(O)cc3)C12C (stereo not given)	> 100 µM	> 100 µM	> 100 µM	> 100 µM	> 100 µM	> 100 µM		> 100 µM	> 100 µM	> 100 µM
O=C1c2cccnc2S(=O)(=O)N1c1ccc([N+](=O)[O-])cc1	> 100 µM	> 100 µM	> 100 µM	> 100 µM	> 100 µM	> 100 µM		> 100 µM	> 100 µM	> 100 µM
Cc1ccc(S(=O)(=O)c2c(O)c3ccc(O)c(C)c3oc2=O)cc1		> 100 µM		> 100 µM	> 100 µM	> 100 µM	> 100 µM	> 100 µM	> 100 µM	> 100 µM
CCOc1snc(C(Cl)(Cl)Cl)c1Cl	62.8 µM	37.7 µM	> 100 µM	28.9 µM		> 100 µM	27.6 µM	> 100 µM	83.7 µM	63.3 µM
C[C@H](c1ccccc1)N1C(=O)[C@@H](OCc2ccccc2)[C@H]1[C@H](COC(=O)COCc1ccccc1)OCc1ccccc1	> 100 µM		> 100 µM			> 100 µM		> 100 µM		
CC1(C)N=C(N)N=C(N)N1c1cccc(OCc2cccc(N)c2)c1	> 100 µM	47.5 µM	> 100 µM	> 100 µM	> 100 µM	> 100 µM	> 100 µM	> 100 µM	> 100 µM	
CCCCCCCCCCCCOCCOCCOCCOCCOCCOCC(=O)NC(Cc1ccccc1)C(=O)Oc1ccc([N+](=O)[O-])cc1 (stereo not given)	75.6 µM	> 100 µM	> 100 µM	> 100 µM	> 100 µM	> 100 µM	> 100 µM	> 100 µM	> 100 µM	
